Consider four compounds from patent publication US9840498B2, “Substituted quinazolin-4-one derivatives” (NOVARTIS AG, priority 2013, dated 2017).

The IC50 is the concentration that inhibits the measured activity by half.

Structures are written as SMILES.

Settings in all cases: enzymatic assay
Assay [1] concerns the target PI3K gamma (Homo sapiens (Human), UniProt P48736). Nature of the assay: Biochemical assay for PI3Kgamma (Adapta TR-FRET format).
Assay [2] deals with PI3K alpha (Homo sapiens (Human), UniProt P42336). Nature of the assay: Biochemical assay for PI3Kalpha (Kinase-Glo format). In general terms: In Kinase-Glo more light means more ATP remaining.
PI3K alpha, sequence (P42336 21-1068): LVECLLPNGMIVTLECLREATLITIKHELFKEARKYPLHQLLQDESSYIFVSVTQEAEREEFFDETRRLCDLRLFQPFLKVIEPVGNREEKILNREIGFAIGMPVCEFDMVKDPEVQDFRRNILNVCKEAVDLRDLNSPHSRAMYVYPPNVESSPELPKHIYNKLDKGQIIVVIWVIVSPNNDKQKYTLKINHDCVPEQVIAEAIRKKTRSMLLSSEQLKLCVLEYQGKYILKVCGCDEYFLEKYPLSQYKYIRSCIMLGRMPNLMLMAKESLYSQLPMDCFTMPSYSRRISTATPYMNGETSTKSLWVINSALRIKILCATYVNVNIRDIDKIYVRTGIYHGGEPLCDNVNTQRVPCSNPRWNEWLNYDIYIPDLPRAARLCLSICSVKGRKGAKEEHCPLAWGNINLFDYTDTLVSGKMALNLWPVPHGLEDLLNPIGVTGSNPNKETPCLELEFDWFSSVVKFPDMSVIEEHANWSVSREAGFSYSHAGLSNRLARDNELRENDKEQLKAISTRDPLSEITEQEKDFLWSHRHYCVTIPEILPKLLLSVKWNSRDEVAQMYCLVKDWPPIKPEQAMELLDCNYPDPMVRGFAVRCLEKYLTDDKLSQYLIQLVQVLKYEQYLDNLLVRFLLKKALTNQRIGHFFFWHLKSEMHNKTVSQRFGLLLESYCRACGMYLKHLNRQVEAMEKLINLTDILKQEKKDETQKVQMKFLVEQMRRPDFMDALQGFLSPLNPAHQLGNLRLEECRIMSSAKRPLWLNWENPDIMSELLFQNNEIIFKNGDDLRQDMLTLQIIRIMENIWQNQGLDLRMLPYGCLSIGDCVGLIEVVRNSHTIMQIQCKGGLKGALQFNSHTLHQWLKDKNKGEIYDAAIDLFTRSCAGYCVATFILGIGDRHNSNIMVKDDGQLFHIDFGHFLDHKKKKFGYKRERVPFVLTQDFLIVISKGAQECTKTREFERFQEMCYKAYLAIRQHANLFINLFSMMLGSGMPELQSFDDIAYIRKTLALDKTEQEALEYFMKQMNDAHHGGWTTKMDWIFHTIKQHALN
PI3K alpha, sequence (P27986 461-568 partner): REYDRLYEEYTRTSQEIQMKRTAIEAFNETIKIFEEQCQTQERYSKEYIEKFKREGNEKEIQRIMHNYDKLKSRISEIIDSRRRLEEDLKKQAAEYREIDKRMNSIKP
Assay [3] has as its target PI3K delta (Homo sapiens (Human), UniProt O00329). Nature of the assay: Biochemical assay for PI3Kdelta (Adapta TR-FRET format).

PI3K delta, sequence (O00329 2-1044): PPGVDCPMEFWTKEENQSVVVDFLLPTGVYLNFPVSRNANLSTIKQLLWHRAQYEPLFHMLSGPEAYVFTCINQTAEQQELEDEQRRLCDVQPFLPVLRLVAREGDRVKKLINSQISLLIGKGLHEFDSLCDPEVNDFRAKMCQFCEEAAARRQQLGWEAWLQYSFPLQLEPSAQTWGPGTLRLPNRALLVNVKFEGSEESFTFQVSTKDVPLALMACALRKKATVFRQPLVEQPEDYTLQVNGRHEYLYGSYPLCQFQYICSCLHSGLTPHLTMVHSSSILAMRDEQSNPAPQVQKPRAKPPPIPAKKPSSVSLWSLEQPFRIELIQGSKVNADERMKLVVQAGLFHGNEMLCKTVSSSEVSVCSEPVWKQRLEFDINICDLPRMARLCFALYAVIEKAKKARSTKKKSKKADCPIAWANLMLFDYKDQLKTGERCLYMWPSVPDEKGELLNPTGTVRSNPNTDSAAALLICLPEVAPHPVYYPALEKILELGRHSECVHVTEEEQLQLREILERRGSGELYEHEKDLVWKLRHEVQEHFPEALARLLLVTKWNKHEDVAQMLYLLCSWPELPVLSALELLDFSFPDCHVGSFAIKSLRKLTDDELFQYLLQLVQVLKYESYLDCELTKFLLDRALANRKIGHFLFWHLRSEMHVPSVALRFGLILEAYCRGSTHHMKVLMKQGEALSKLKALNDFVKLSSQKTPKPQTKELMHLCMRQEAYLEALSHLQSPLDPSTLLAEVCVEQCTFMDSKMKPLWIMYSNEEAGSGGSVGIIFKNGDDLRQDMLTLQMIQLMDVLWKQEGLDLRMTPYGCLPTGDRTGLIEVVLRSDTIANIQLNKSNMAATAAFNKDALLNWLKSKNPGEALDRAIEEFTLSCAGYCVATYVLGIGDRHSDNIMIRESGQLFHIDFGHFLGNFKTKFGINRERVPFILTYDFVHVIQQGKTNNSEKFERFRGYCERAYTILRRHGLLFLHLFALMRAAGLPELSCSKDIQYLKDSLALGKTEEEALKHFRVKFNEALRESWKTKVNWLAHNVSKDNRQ
PI3K delta, sequence (P27986 461-568 partner): as the sequence (P27986 461-568 partner) above
PI3K gamma, sequence (P48736 whole entry): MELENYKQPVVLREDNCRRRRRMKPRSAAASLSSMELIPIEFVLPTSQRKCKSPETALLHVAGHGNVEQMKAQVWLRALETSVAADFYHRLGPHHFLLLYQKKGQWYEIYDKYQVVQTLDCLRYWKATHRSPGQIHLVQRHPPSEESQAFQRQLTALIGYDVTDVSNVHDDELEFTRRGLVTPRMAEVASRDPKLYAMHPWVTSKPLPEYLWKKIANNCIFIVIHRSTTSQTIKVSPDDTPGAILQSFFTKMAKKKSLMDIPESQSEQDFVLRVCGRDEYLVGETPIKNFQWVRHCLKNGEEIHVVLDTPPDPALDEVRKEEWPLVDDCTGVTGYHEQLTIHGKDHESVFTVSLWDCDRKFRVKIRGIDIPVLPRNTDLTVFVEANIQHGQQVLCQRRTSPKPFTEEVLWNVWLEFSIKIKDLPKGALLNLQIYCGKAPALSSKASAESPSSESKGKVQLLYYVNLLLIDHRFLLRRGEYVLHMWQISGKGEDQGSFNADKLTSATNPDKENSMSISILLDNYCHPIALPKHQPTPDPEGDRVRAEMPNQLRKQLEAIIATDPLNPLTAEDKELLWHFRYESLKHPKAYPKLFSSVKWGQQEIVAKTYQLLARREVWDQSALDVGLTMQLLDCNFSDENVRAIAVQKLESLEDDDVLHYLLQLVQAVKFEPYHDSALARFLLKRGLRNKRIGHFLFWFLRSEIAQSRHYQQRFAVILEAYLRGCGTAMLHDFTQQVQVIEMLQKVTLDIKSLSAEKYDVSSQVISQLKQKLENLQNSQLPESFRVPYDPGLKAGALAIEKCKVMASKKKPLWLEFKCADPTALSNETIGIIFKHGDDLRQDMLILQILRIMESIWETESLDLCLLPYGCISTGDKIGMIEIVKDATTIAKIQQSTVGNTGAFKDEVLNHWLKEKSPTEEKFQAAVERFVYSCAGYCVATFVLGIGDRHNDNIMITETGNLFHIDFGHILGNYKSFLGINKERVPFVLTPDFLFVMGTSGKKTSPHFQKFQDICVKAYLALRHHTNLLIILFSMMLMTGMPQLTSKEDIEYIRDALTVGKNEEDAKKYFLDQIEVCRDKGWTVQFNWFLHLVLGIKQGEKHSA

As for `Cc1nc(N)nc(N2C[C@@H](F)C[C@H]2c2nc3cccc(-c4cnn(C)c4)c3c(=O)n2-c2ccccc2)c1C#N` [Example 30, 2-Amino-4-((2S,4S)-4-fluoro-2-(5-(1-methyl-1H-pyrazol-4-yl)-4-oxo-3-phenyl-3,4-dihydroquinazolin-2-yl)pyrrolidin-1-yl)-6-methylpyrimidine-5-carbonitrile], the half-maximal inhibitory concentration (IC50) in assay [1] was found to be 24 nM; in assay [2], 450 nM; in assay [3], 14 nM.

Take `Cc1nc(N)nc(N2C[C@@H](O)C[C@H]2c2nc3ccc(F)c(-c4cn(C)cn4)c3c(=O)n2-c2ccccc2)c1C#N` [Example 31, 2-Amino-4-((2S,4S)-2-(6-fluoro-5-(1-methyl-1H-imidazol-4-yl)-4-oxo-3-phenyl-3,4-dihydroquinazolin-2-yl)-4-hydroxypyrrolidin-1-yl)-6-methylpyrimidine-5-carbonitrile]: the concentration for half-maximal inhibition (IC50) in assay [1] came out at 110 nM; in assay [2], 570 nM; in assay [3] it was 13 nM.

Take `CCOc1ncc(-c2cccc3nc([C@@H]4CCCN4c4nc(N)nc(C)c4C#N)n(-c4ccccc4)c(=O)c23)cn1` [Example 32, (S)-2-Amino-4-(2-(5-(2-ethoxypyrimidin-5-yl)-4-oxo-3-phenyl-3,4-dihydroquinazolin-2-yl)pyrrolidin-1-yl)-6-methylpyrimidine-5-carbonitrile]: the results for the IC50 in assay [1], in assay [2] and in assay [3] were 140 nM, 490 nM and 5 nM, respectively.

As for `N#Cc1c(N)ncnc1N1CCC[C@H]1c1nc2cccc(C#CCO)c2c(=O)n1-c1ccccc1` [Example 33, (S)-4-Amino-6-(2-(5-(3-hydroxyprop-1-yn-1-yl)-4-oxo-3-phenyl-3,4-dihydroquinazolin-2-yl)pyrrolidin-1-yl)pyrimidine-5-carbonitrile], the IC50 in assay [1] worked out at 81 nM; in assay [2], 620 nM; in assay [3] it was 13 nM.
